Test results reported in BigSolDB 2.1.

NC(N)=S
solubility (mole fraction)
Settings | 283.15 K | 288.15 K | 293.15 K | 298.15 K | 303.15 K | 308.15 K | 313.15 K | 318.15 K | 323.15 K
in 2-butanone | 0.0135 | 0.0154 | 0.0171 | 0.0189 | 0.0203 | 0.0219 | 0.0234 | 0.0247 | 0.0264
in acetone | 0.0348 | 0.0364 | 0.0375 | 0.0389 | 0.0401 | 0.042 | 0.0438 | 0.0465 | 0.0482
in acetonitrile | 0.00865 | 0.00982 | 0.0107 | 0.012 | 0.0134 | 0.0146 | 0.016 | 0.018 | 0.0196
in ethanol | 0.0172 | 0.02 | 0.0227 | 0.0254 | 0.0285 | 0.0315 | 0.0353 | 0.0394 | 0.0442
in ethyl acetate | 0.00497 | 0.00519 | 0.00548 | 0.0058 | 0.0062 | 0.00664 | 0.00718 | 0.00769 | 0.00814
in isobutanol | 0.00827 | 0.0101 | 0.0116 | 0.0132 | 0.0152 | 0.0171 | 0.0189 | 0.0224 | 0.0251
in isopropanol | 0.0133 | 0.0151 | 0.0168 | 0.019 | 0.0225 | 0.0246 | 0.0273 | 0.0308 | 0.0344
in methanol | 0.0423 | 0.0471 | 0.0521 | 0.0596 | 0.0644 | 0.07 | 0.0761 | 0.0848 | 0.0944
in methyl acetate | 0.00556 | 0.00628 | 0.00673 | 0.00747 | 0.00814 | 0.00885 | 0.00951 | 0.0102 | 0.0109
in n-butanol | 0.0104 | 0.0121 | 0.0133 | 0.015 | 0.0173 | 0.0195 | 0.0212 | 0.0238 | 0.0274
in n-propanol | 0.0128 | 0.0143 | 0.0157 | 0.0177 | 0.0209 | 0.0231 | 0.0255 | 0.029 | 0.0326
in water | 0.0211 | 0.0265 | 0.0325 | 0.0396 | 0.0493 | 0.0592 | 0.0701 | 0.0835 | 0.102
